These results are taken from article PMC8341946, “Wheat pathogen Zymoseptoria tritici N-myristoyltransferase inhibitors: on-target antifungal activity and an unusual metabolic defense mechanism” (RSC Chemical Biology, 2020).

Each structure is given as a SMILES string. pEC50, pIC50, pKd: −log10 of the molar value. “Also recorded” adds a separate entry of the source.

A word on the pIC50: it is the IC50 on a negative log10 scale, so that one unit is a factor of ten. One may read the pEC50 as −log10 of the EC50, conventionally taken in molar units. A low value points to a high EC50. In general, pKd refers to −log10 of the Kd, conventionally taken in molar units.

The target of one data set is ZtNMTΔ99 (Zymoseptoria tritici, UniProt F9XBB7). In words: ZtNMT IC50 assay (CPM, enzymatic). In kind it is biochemical. From the text: As the peptide substrate we used an octapeptide derived from the N-terminus of F9X1I2 (Z. tritici predicted homolog of ADP-ribosylation factor 1, ARF1), which we hypothesized would be natively myristoylated in vivo.
Fig. 1 ZtNMT enzymatic activity and structure. […] The CPM reagent enables fluorogenic readout of the reaction rate based on the generation of coenzyme A thiol. […] (D) ZtNMT homology model generated using Swiss Model[26] based on a reported A. fumigatus NMT X-Ray structure 4UWI[27] was aligned to HsNMT1 (PDB: 5MU6, in transparent grey). […] (E) A map of ligand interactions between docked IMP-1088 and its induced fit generated ZtNMT receptor protein residues.
The assay was adapted from a previous publication.[25] […] Accumulation of fluorescence signal at 470 nm was measured at one-minute intervals during the first 20 minutes of the reaction. Rates of the enzymatic reaction were calculated from the linear range of the resulting fluorescence over time curve using GraphPad Prizm 5. Then, sigmoidal dose–response (variable curve) fitting was applied to the data to obtain IC50 values. The assay was performed with at least 2 replicates, mean and confidence intervals are reported.

The test system of a further data set is Z. tritici. In words: Anti-proliferative EC50 assay (MTS viability). In kind it is cell-based, Zymoseptoria tritici. As to conditions: Fig. 1B, Z. tritici cell viability, MTS, 40 h.
For data set [1], the system named is NMT activity in live Z. tritici. In words: YnMyr tagging in live Z. tritici, in-gel fluorescence. The method, then: Fig. 2 Inhibition and assessment of myristoylation in vivo. (A) Generalized workflow for identification and quantification of myristoylated proteins. Cells were treated with YnMyr in culture, and cell lysates ligated to multifunctional reagents bearing a TAMRA dye for fluorescent in-gel imaging and/or biotin for affinity enrichment and analysis by proteomics.
YnMyr was used to measure the effect of inhibitor on NMT activity in live Z. tritici.

In the next data set the test system is Z. tritici culture. Description: Z. tritici culture viability after 4 h treatment (microscope). As to conditions: 4 h treatment, logarithmic growth phase. The format is cell-based, Zymoseptoria tritici.
Data set [2] deals with Z. tritici myristoylated proteome. Description: TMT-based proteomics of myristate enriched proteins after NMT inhibition. The format is cell-based, Zymoseptoria tritici.
Data set [3] has as its system Z. tritici whole proteome. In words: TMT-based proteomics of the whole lysate after NMT inhibition. The note with it: 8-64 μM, 4 h. In kind it is cell-based, Zymoseptoria tritici. The method, then:
These changes reflect the acute response mounted by the fungus in response to compound and are relatively substantial considering that they occur following only 4 hours of inhibitor treatment. Limited annotation of Z. tritici genes[43] prompted us to undertake an in-depth analysis using NCBI BLAST+[39] to find closest homologs in S. cerevisiae, one of the most well-annotated yeast genomes available. We performed the search filtering out poor alignment matches (e-value > 0.01) and selected a single best match in the S. cerevisiae proteome for each Z. tritici protein.
Fig. 3 Response of Z. tritici to treatment with NMT inhibitors. […] Data is normalized by subtraction of the row mean values. (B) GO biological process and KEGG term enrichments using Fisher's exact test applied to proteins in Cluster W. (C) GO biological process term enrichments from Fisher's exact test applied to proteins in Cluster Z. GO annotation were assigned to Z. tritici proteins based on S. cerevisiae homolog (BLAST analysis) terms.
0.8 mg of each of the TMTsixplex™ Isobaric labels was dissolved in 41 μl anhydrous acetonitrile and then 8 μl of the solution of a reagent was added to 30 μl of corresponding peptide solution to start the labelling reaction. The solution was stirred at room temperature for 1.5 h. […]

Data set [4] concerns HsNMT1. As to conditions: Table S1; ref SI refs 1-7 as given with each inhibitor name; cited from earlier work.
For data set [5], the target named is HsNMT1. Set-up: method as in PMID 29760414. The note with it: estimated; cited from earlier work.

ZtNMTΔ99, sequence (F9XBB7 entry or part of it, stated change not applied): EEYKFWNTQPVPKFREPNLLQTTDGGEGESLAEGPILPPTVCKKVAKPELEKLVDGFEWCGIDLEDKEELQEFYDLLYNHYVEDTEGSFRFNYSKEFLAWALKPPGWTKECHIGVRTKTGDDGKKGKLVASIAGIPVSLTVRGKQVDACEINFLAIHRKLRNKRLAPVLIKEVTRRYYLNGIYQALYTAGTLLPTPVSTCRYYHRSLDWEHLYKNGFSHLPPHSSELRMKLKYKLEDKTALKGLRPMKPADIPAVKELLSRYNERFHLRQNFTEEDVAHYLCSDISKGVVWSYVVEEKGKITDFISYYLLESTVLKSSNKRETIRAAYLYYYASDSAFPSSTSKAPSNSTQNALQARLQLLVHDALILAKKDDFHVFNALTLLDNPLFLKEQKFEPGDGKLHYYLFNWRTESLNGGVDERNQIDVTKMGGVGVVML

Turning to `Cc1nn(C)c(C)c1CCOc1c(-c2ccc3c(c2)c(CN(C)C)nn3C)ccc(F)c1F` [IMP-1088], the pIC50 on ZtNMTΔ99 was 7.92; with HsNMT1 [4] it was over 9.00. The negative-log EC50 (pEC50) with Z. tritici is 4.64; in the data set on Z. tritici (Zymoseptoria tritici), about 4.70. The “TC50 (half maximal concentration of YnMyr tagging)” value in data set [1] (4 h, intensity of most prominent band (ca. 20 kDa), in-gel fluorescence) was 14 ± 1 µM. Also, the “effect on YnMyr labeling (in-gel band intensities)” value in data set [1] (4 h with compound and YnMyr, TAMRA fluorescence) is on record as “dose-dependently reduces labeling; also recorded: reduced YnMyr tagging”. Further, in the data set on Z. tritici culture, the “effect on cell viability” value was “no detectable effect on cell viability”. In addition, in data set [2] (64 μM versus DMSO, 4 h), the “YnMyr tagging of myristoylated proteins” value is “reduced tagging”. Besides, the figures for the “TC50 (concentration of half-tagging with YnMyr)” value in data set [2] (first subset of myristoylated proteins in Cluster 1), in data set [2] (second subset of myristoylated proteins in Cluster 1) and in data set [2] (third subset of myristoylated proteins in Cluster 1) were 8 to 16 µM, 16 to 32 µM and 32 to 64 µM, respectively. Besides, the whole proteome response entry in data set [3] is “significant dose-dependent changes in the expression of multiple proteins”. In addition, the pKd at HsNMT1 [5] was over 9.70.
